What was measured:
Format in all cases: biochemical
[1] = target: T1, human ROCK2 enzyme kinase domain (Homo sapiens, UniProt O75116); test: fluorescence coupling (TR-FRET) enzymatic assay, ROCK2; details: 4 nM enzyme, 50 nM Ulight-CREBTide, one hour room temperature
T1 construct: GST; purchased Carna BioSciences 01-110
Experimental: (§1) Dose-response curves for compounds of the present invention were determined using a fluorescence coupling enzymatic assay using purified C-terminal truncated human ROCK1 catalytic domain (amino acids 1-477 of accession number NP_005397.1) fused to GST (Carna BioSciences, Catalog #01-109) and purified C-terminal truncated human ROCK2 enzyme kinase domain (amino acids 1-553 of accession number NP_004841.2) fused to GST BioSciences, Catalog #01-110). In addition, full length cGMP-dependent protein kinase 1 (PKG or PRKG1; amino acids 1-686 of accession number NP_006249.1) fused to GST (Carna BioSciences, Catalog #01-142), full length PKACα (PRKACA; amino acids 1-351 of accession number NP_002721.1) fused to GST (Carna BioSciences, Catalog #01-127), and C-terminal truncated human AKT1 catalytic domain (amino acids 104-480 of accession number NP_005154.1) fused to GST Biosciences, Catalog #01-101) were used as a control to measure any non-desired off-target kinase activity.
(§2) Briefly, compounds of the present invention were solubilized in DMSO and a series of 12, three-fold serial dilutions were made for each compound in 2.5% DMSO. The initial starting concentration for the serial dilutions of each compound was 10 μM or 100 μM. Control samples lacking compound, ROCK enzyme or ATP also were prepared and processed in parallel with compound test samples.
(§3) A 4 μL aliquot of each serial dilution of test compound diluted in H2O with 2.5% DMSO was added to a well containing 4 μL of 10 nM purified N-truncated ROCK1 (4 nM final concentration), 10 nM purified N-truncated ROCK2 enzyme (4 nM final concentration), 1.25 nM AKT1 (0.5 nM final concentration), 25 pM PKACA (10 pM final concentration) or 20 nM PKG (8 nM final concentration), in reaction buffer containing 50 mM Hepes, pH 7.5, 1 mM EGTA, 10 mM MgCl2, 2 mM DTT, and 0.01% Tween 20 (final concentration). To initiate the enzymatic reaction, 2 μL of a solution was added to each well to provide a final concentration of 50 nM Ulight-CREBTide peptide substrate (Perkin Elmer, Catalog #TRF0107) and 4 μM ATP for ROCK1 and AKT1 assays, […] for ROCK2 assays and 30 μM ATP for PKG assays, or 1 μM ATP for PKACA assays. The reaction mixtures were incubated at room temperature for one hour. After one hour, the reaction was stopped by the addition of a 10 solution of an Europium-labelled phospho-CREB (Ser133) antibody (Perkin Elmer, Catalog #TRF0200) in LANCE buffer supplemented with 20 mM EDTA. The stopped reaction mixtures were incubated at room temperature for 90 minutes. The TR-FRET 665/620 ratios were determined using a Clariostar monochromator plate reader instrument (BMG LabTech) in accordance with the manufacturer's instructions. The ICso value for each compound was determined from each dose-response curve using GraphPad Prism 7 software with a sigmodial dose response. Key: A is IC50≤100 nM; B is 100 nM<IC50<1000 nM; C is 1,000<IC50≤10,000 nM; D is IC50>10,000 nM

PKACα (PRKACA) = target: T2, PKACα (PRKACA) (Homo sapiens, UniProt P17612); test: fluorescence coupling (TR-FRET) enzymatic assay, PKACA off-target control; details: 10 pM enzyme, 1 μM ATP, 50 nM Ulight-CREBTide, one hour room temperature
T2 construct: GST; purchased Carna BioSciences 01-127
Experimental: as §1, §2, §3

[2] = target: T3, human AKT1 catalytic domain (Homo sapiens, UniProt P31749); test: fluorescence coupling (TR-FRET) enzymatic assay, AKT1 off-target control; details: 0.5 nM enzyme, 4 μM ATP, 50 nM Ulight-CREBTide, one hour room temperature
T3 construct: GST; purchased Carna BioSciences 01-101
T3 sequence (P31749 104-480): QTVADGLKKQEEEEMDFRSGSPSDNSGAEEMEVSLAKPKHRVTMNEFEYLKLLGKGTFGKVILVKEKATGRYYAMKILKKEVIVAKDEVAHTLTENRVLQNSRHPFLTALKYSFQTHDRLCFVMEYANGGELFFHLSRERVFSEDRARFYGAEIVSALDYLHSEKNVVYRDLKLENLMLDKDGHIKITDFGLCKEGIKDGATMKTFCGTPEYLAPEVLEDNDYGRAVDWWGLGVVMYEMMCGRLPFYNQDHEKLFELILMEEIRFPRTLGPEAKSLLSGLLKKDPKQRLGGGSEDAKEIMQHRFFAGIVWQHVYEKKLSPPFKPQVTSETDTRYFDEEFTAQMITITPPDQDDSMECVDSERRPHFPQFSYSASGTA
Experimental: as §1, §2, §3

[3] = target: T4, cGMP-dependent protein kinase 1 (PKG or PRKG1) (Homo sapiens, UniProt Q13976); test: fluorescence coupling (TR-FRET) enzymatic assay, PKG off-target control; details: 8 nM enzyme, 30 μM ATP, 50 nM Ulight-CREBTide, one hour room temperature
T4 construct: GST; purchased Carna BioSciences 01-142
T4 sequence (Q13976 1-686 isoform Q13976-2): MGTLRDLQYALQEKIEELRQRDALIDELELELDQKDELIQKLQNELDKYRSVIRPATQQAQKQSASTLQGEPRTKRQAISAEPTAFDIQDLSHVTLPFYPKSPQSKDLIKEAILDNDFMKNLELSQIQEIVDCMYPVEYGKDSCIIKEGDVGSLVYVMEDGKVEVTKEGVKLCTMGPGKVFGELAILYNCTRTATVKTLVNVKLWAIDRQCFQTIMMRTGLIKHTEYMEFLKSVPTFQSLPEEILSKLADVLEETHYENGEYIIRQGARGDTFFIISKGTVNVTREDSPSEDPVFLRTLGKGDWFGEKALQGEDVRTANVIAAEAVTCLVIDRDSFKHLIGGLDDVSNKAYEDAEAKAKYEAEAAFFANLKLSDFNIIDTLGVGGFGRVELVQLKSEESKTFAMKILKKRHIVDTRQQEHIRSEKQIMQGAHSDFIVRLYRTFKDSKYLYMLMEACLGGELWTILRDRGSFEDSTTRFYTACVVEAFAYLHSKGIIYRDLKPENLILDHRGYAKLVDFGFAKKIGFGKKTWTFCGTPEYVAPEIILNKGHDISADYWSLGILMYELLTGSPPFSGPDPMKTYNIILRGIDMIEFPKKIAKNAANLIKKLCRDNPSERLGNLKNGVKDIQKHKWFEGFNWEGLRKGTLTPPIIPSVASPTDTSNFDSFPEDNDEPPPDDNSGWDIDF
Experimental: as §1, §2, §3

[4] = target: T5, human ROCK1 catalytic domain (Homo sapiens, UniProt Q13464); test: fluorescence coupling (TR-FRET) enzymatic assay, ROCK1; details: 4 nM enzyme, 4 μM ATP, 50 nM Ulight-CREBTide, one hour room temperature; read-out: ROCK1 IC50
T5 construct: GST; purchased Carna BioSciences 01-109
T5 sequence (Q13464 1-477): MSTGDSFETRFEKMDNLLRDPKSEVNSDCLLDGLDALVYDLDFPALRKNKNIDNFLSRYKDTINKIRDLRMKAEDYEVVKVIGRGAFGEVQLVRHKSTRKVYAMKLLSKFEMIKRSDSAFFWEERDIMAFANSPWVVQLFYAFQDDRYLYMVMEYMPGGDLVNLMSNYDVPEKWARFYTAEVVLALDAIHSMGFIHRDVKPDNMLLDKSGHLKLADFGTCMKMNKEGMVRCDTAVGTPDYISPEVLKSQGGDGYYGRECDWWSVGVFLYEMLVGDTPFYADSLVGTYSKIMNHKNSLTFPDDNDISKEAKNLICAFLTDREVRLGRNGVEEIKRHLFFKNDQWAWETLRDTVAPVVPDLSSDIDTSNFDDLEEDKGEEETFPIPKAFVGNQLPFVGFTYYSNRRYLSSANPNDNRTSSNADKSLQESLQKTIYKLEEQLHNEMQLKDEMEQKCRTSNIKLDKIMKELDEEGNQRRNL
Experimental: as §2
The reaction mixtures were incubated at room temperature for one hour. After one hour, the reaction was stopped by the addition of a 10 solution of an Europium-labelled phospho-CREB (Ser133) antibody (Perkin Elmer, Catalog #TRF0200) in LANCE buffer supplemented with 20 mM EDTA. The stopped reaction mixtures were incubated at room temperature for 90 minutes. […] The ICso value for each compound was determined from each dose-response curve using GraphPad Prism 7 software with a sigmodial dose response.

T1 sequence (O75116 1-553): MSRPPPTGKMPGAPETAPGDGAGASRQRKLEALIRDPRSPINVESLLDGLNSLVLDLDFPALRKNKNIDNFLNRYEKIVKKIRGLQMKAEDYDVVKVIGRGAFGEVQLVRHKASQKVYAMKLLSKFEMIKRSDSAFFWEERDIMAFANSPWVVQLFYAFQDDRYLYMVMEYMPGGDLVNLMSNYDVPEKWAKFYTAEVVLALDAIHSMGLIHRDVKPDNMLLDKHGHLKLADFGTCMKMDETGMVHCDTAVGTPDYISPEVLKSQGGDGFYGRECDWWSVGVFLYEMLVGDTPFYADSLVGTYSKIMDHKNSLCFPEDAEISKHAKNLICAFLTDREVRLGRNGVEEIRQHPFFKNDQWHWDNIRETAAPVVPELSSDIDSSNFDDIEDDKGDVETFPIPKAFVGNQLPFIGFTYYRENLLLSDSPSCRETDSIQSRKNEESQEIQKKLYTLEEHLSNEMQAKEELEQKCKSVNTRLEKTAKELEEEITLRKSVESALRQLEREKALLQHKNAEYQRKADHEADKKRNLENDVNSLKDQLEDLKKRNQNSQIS

| SMILES | IC50 [1] | IC50 (PKACα (PRKACA)) | IC50 [2] | IC50 [3] | IC50 [4] |
| --- | --- | --- | --- | --- | --- |
| CN(C)c1cc(C#N)cc2c1CCN2S(=O)(=O)c1cccc2c(=O)[nH]cc(Cl)c12 [Example 37, 1-((4-chloro-1-oxo-1,2-dihydroisoquinolin-5-yl)sulfonyl)-4-(dimethylamino)indoline-6-carbonitrile] | 100 to 1000 nM | > 10000 nM | > 10000 nM | > 10000 nM | 100 to 1000 nM |
| N#Cc1cnc2c(c1)N(S(=O)(=O)c1cccc3c(=O)[nH]ccc13)CC2 [Example 38, 1-((1-oxo-1,2-dihydroisoquinolin-5-yl)sulfonyl)-2,3-dihydro-1H-pyrrolo[3,2-b]pyridine-6-carbonitrile] | 100 to 1000 nM | > 10000 nM | > 10000 nM | > 10000 nM | 100 to 1000 nM |
| Cc1c[nH]c(=O)c2cccc(S(=O)(=O)N3CCc4ncc(C#N)cc43)c12 [Example 39, 1-((4-methyl-1-oxo-1,2-dihydroisoquinolin-5-yl)sulfonyl)-2,3-dihydro-1H-pyrrolo[3,2-b]pyridine-6-carbonitrile] | 100 to 1000 nM | > 10000 nM | > 10000 nM | > 10000 nM | 100 to 1000 nM |
| N#Cc1cnc2c(c1)N(S(=O)(=O)c1cccc3c(=O)[nH]cc(Cl)c13)CC2 [Example 40, 1-((4-chloro-1-oxo-1,2-dihydroisoquinolin-5-yl)sulfonyl)-2,3-dihydro-1H-pyrrolo[3,2-b]pyridine-6-carbonitrile] | < 100 nM | > 10000 nM | > 10000 nM | > 10000 nM | < 100 nM |
| CNc1cc(C#N)cc2c1CCN2S(=O)(=O)c1cccc2c(=O)[nH]cc(C)c12 [Example 41, 1-((4-methyl-1-oxo-1,2-dihydroisoquinolin-5-yl)sulfonyl)-4-(methylamino)indoline-6-carbonitrile] | 100 to 1000 nM | > 10000 nM | > 10000 nM | > 10000 nM | 100 to 1000 nM |
| CNc1cc(C#N)cc2c1CCN2S(=O)(=O)c1cccc2c(=O)[nH]cc(Cl)c12 [Example 42, 1-((4-chloro-1-oxo-1,2-dihydroisoquinolin-5-yl)sulfonyl)-4-(methylamino)indoline-6-carbonitrile] | < 100 nM | > 10000 nM | > 10000 nM | > 10000 nM | 100 to 1000 nM |
| CCNc1cc(C#N)cc2c1CCN2S(=O)(=O)c1cccc2c(=O)[nH]cc(C)c12 [Example 43, 4-(ethylamino)-1-((4-methyl-1-oxo-1,2-dihydroisoquinolin-5-yl)sulfonyl)indoline-6-carbonitrile] | 100 to 1000 nM | > 10000 nM | > 10000 nM | > 10000 nM | 1000 to 10000 nM |
| CCNc1cc(C#N)cc2c1CCN2S(=O)(=O)c1cccc2c(=O)[nH]cc(Cl)c12 [Example 44, 1-((4-chloro-1-oxo-1,2-dihydroisoquinolin-5-yl)sulfonyl)-4-(ethylamino)indoline-6-carbonitrile] | 1000 to 10000 nM | > 10000 nM | > 10000 nM | > 10000 nM | 1000 to 10000 nM |
| Cc1c[nH]c(=O)c2cccc(S(=O)(=O)N3CCc4c(NCCN5C[C@H]6C[C@@H]5CO6)cc(C#N)cc43)c12 [Example 45] | < 100 nM | 100 to 1000 nM | < 100 nM | 1000 to 10000 nM | < 100 nM |
